Laboratory results reported in publication PMC5983471 (PLoS ONE, 2018).
Values after ≈ are worked out from the molar mass of the structure shown. Values joined by “and” are separate entries in the source; they are usually repeats but may differ in a detail not shown here. Equal entries are not always repeated. “Also recorded” adds a separate entry of the source. Where two headings read alike, the source gives them in different places.

What was measured:
[1] = published pharmacokinetics data; cited from earlier work
[2] = test system: abiraterone and/or enzalutamide-resistant models, including AR-V7+ cell lines; settings: cited from earlier work
[3] = rats; ref 62 (S1 Protocol, WHO/VBC/DS/88.63); cited from earlier work
[4] = prior experience; ref 27,60 (S1 Protocol); cited from earlier work
[5] = test system: AR-V7 prostate cancer models; parameters: method as in ref 28,29 (S1 Protocol); settings: combined with enzalutamide or abiraterone; ref 28,29 (S1 Protocol); cited from earlier work
[6] = test system: AR-V7 prostate cancer models; parameters: method as in ref 28 (S1 Protocol, Liu et al, 2014); settings: in vitro, 48 hours exposure; ref 28 (S1 Protocol, Liu et al, 2014); cited from earlier work
[7] = ref 27,71 (S1 Protocol); cited from earlier work
[8] = test system: enzalutamide-resistant LNCaP cells engineered to maintain Stat3 activation; settings: cited from earlier work
[9] = test system: AR-V7+ CWR22Rv1 cells; settings: 81.8 ng/mL; cited from earlier work
[10] = test system: DU145; settings: cited from earlier work
[11] = test system: metastatic CRPC (PSA); test: On-study PSA changes; type: in vivo, human
Text: The primary objective was to assess safety.

[12] = test system: enzalutamide-resistant, AR-V7+ C4-2B cells; settings: co-cultured with 81.8 ng/mL; cited from earlier work
[13] = Plasma niclosamide pharmacokinetics (LCMS, non-compartmental analysis); type: in vivo, human
Protocol: Blood for pharmacokinetic analyses were drawn at the following time points after the first dose: 0.5 hr, 1 hr, 1.5 hr, 2 hr, 3 hr, 4 hr, 6 hr, 8 hr and on Day 15. […] After vortexing, the samples were centrifuged at 20000 x G for 10 minutes at 4°C. The supernatant was transferred to a 96-well plate and 2 μL were injected on the liquid chromatography mass spectrometry (LCMS) system. The LCMS system was an ultrapressure liquid chromatography (Agilent (Santa Clara, CA) 1290 series) coupled to an Agilent G6410B triple-quadrupole mass spectrometer. The column was an Agilent Zorbax SB-C18 2.1 mm x 150 mm x 5μ maintained at 45°C. Mobile phase A was 10 mM ammonium formate (pH = 3) and mobile phase B was acetonitrile in the ratio of 35% A: 65% B at 0.4 mL/min.

[14] = Phase I dose-escalation: adverse events and dose-limiting toxicities (CTCAE v4.0)
Protocol: All patients were required to have mCRPC (i.e., disease progression in spite of serum testosterone ≤50 ng/dL) and had received prior abiraterone. Patients were originally required to have detectable AR-V transcripts in circulating tumor cells (CTC) as determined using the AdnaTest assay[9]. […] The primary objective was to assess safety.
We utilized the continual reassessment method (CRM) to evaluate dose-related toxicities and to determine the recommended Phase II dose[37]. We targeted a maximum of 30% of patients incurring dose-limiting toxicities (DLT) up to 30 days after the final (day-28) dose. […] Adverse events (AEs) were documented by incidence and their severity was graded according to the National Cancer Institute–Common Terminology Criteria for Adverse Events (CTCAE) version 4.0. The pharmacokinetic data underwent non-compartmental analysis using Phoenix WinNonlin version 8.0 (Certara USA, Inc; Princeton, NJ), and key pharmacokinetic parameters (e.g., Cmax, Cmin, Css and t1/2) were extracted.

[15] = first dose 500 mg PO, plasma, individual patients Pt# 1, 17, 18
[16] = first dose 500 mg PO, Pt# 1, 17, 18
[17] = first dose 1000 mg PO, plasma, individual patients Pt# 19, 20
[18] = first dose 1000 mg PO, Pt# 19, 20
[19] = AE possibly/probably related, 500 mg PO TID + enzalutamide, Pt# 1, 17, 18
[20] = AE possibly/probably related, 1000 mg PO TID + enzalutamide, Pt# 19, 20

## O=C(Nc1ccc([N+](=O)[O-])cc1Cl)c1cc(Cl)ccc1O [niclosamide, 2',5-dichloro-4'-nitrosalicylanilide]
[1]
  oral bioavailability: poor oral bioavailability
[2]
  concentrations that consistently inhibited cell growth: ≥ 163.5 ng/mL
  lowest concentration inhibiting some AR-V7+ cell lines: ≥ 81.8 ng/mL
[3]
  oral LD50: > 5,000 mg/kg body weight
[4]
  patients with gastrointestinal side effects (nausea, vomiting and stomach pain): ~ 10%
[5]
  anti-tumor effect of combination: synergistic
[6]
  lowest concentration inducing apoptosis / inhibiting cell line growth: ≥ 0.25 µg/mL
[7]
  solubility in acetone: soluble
  solubility in ethanol, chloroform, or ether: sparingly soluble
  solubility in water: almost insoluble
[8]
  concentrations at which cells were growth inhibited: ≥ 163.5 ng/mL
[9]
  growth inhibition: did not demonstrate significant growth inhibition
[10]
  IC50, decreased cell proliferation: 0.33 µg/mL (≈ 1.01 µM)
[11]; 1000 mg PO TID + enzalutamide, Pt# 19
  PSA Day 29: 3009.49 ng/mL
[11]; Day 1 to Day 29, 1000 mg PO TID + enzalutamide, Pt# 19
  PSA Change (%): 101.7%
[11]; all dose cohorts, niclosamide + enzalutamide
  PSA declines: no PSA declines; also recorded: no evidence for declining PSA
[11]; any patient enrolled, niclosamide + enzalutamide
  clinical activity: no evidence of clinical activity
[12]
  growth inhibition: growth inhibited
[13]; 500 mg PO TID cohort
  patients achieving a Cmax ≥163.5 ng/mL: one of three
[13]; 1000 mg PO TID cohort
  patients achieving a Cmax ≥163.5 ng/mL: one of two
[13]; [15]
  Cmax: 35.7 ng/mL and 88.3 ng/mL
  Tmax: 6 h and 2 h and 1 h
[13]; [16]
  % of AUC0-∞ extrapolated: 26.6% and 13.7% and 17.2%
  Cmin: 13.3 ng/mL and 6.92 ng/mL and 7.42 ng/mL
  Tmin: 4 h and 8 h
[13]; [17]
  Cmax: 149 ng/mL
  Tmax: 1 h and 6 h
[13]; first dose 1000 mg PO, Clast/elimination rate constant used for extrapolation, Pt# 19, 20
  First dose AUC0-∞: 986 ng·h/mL
[13]; [18]
  % of AUC0-∞ extrapolated: 36.0% and 36.2%
  Apparent oral clearance (clearance divided by fraction absorbed): 14.9 L/hr per kg of IBW
  Cmin: 45.5 ng/mL and 90.0 ng/mL
  First dose AUC0-τ: 629 ng·h/mL
  Tmin: 8 h
[13]; human, plasma, po, 1000 mg, first dose 1000 mg PO, plasma, individual patients Pt# 19, 20, read-out: Cmax
  Cmax: 182 ng/mL
[13]; human, plasma, po, 1000 mg, first dose 1000 mg PO, Clast/elimination rate constant used for extrapolation, Pt# 19, 20, read-out: First dose AUC0-∞
  AUC(0-inf): 1060 ng·h/mL
[13]; human, plasma, po, 1000 mg, first dose 1000 mg PO, Pt# 19, 20, read-out: Apparent oral clearance (clearance divided by fraction absorbed) (converted)
  CL/F: 203 mL/min/kg
[13]; human, plasma, po, 1000 mg, first dose 1000 mg PO, Pt# 19, 20, read-out: First dose AUC0-τ
  AUC: 676 ng·h/mL
[13]; male, human, plasma, po, 1000 mg, all 5 patients, 500 and 1000 mg cohorts, read-out: apparent oral clearance (CL/F), range over patients
  CL/F: 152 to 630 mL/min/kg
[14]; 500 mg PO TID cohort
  patients with any toxicities deemed at least possibly related to niclosamide: one out of three
[14]; 500 mg PO TID cohort, 3 patients, + enzalutamide
  dose-limiting toxicities (DLTs): no dose-limiting toxicities; also recorded: No DLTs observed
[14]; 500 mg PO TID in combination with enzalutamide
  tolerability: well tolerated
[14]; AE possibly/probably related, 500 mg PO TID + enzalutamide 160 mg daily, Pt# 1, 17, 18
  Nausea (Grade): 1 Grade
[14]; [19]
  Anorexia (Grade): 1 Grade
  Weight loss (Grade): 1 Grade
[14]; AE possibly/probably related, 1000 mg PO TID + enzalutamide 160 mg daily, Pt# 19, 20
  Nausea (Grade): 3 Grade and 3 ^* Grade and 2 Grade
[14]; [20]
  Abdominal pain (Grade): 3 Grade
  Anorexia (Grade): 1 Grade
  Colitis (Grade): 3 Grade and 3 ^** Grade
  Diarrhea (Grade): 3 Grade
  Lipase elevation (Grade): 2 Grade
  Vomiting (Grade): 3 Grade
[14]; PO TID, in combination with enzalutamide 160 mg daily
  maximum tolerated dose: 500 mg
